From patent US6559170B1, “Pyridine derivatives having fungicidal activity and processes to produce and use same” (Dow AgroScience LLC, priority 1999, dated 2003)

Experiments:
Erysiphe graminis—ERYSGT = experiment: Powdery Mildew of Wheat, 1-day protectant whole plant test; assay type: in vivo; settings: 100 ppm spray, 1-day protectant (1DP), wheat cultivar Monon
[1] = tested on: Leptosphaeria nodorum—LEPTNO; experiment: Glume blotch of wheat, 1-day protectant whole plant test; assay type: in vivo; settings: 100 ppm spray, 1-day protectant (1DP), wheat cultivar Monon
[2] = tested on: Phytophthora infestans—PHYTIN; assay type: in vivo; settings: 100 ppm spray, 1-day protectant (1DP), tomatoes cultivar Rutgers
[3] = tested on: Puccinia recondita—PUCCRT; experiment: Brown rust of wheat, 1-day protectant whole plant test; assay type: in vivo; settings: 100 ppm spray, 1-day protectant (1DP), wheat cultivar Monon

| SMILES | ERYSGT percent control of the plant disease compared with untreated, inoculated plants (Erysiphe graminis—ERYSGT) [%] | melting point [°C] | LEPTNO percent control of the plant disease compared with untreated, inoculated plants [1] [%] | PHYTIN percent control of the plant disease compared with untreated, inoculated plants [2] [%] | PUCCRT percent control of the plant disease compared with untreated, inoculated plants [3] [%] |
| --- | --- | --- | --- | --- | --- |
| CNC(=O)C(=NOC)c1cccc(Cl)c1COc1ccc(Sc2ccc(C)cc2)cn1 [Compound 4, 2-Methoxyimino-N-methyl-{3-chloro-2-[5-(4-methylphenyl)thio-2-pyridyloxy]methylphenyl}acetamide] | 67 | 100 to 102 | 98 | 89 | 99 |
| CNC(=O)C(=NOC)c1cccc(Cl)c1COc1ccc(Sc2ccc(Cl)cc2)cn1 [Compound 5, 2-Methoxyimino-N-methyl-{3-chloro-2-[5-(4-chlorophenyl)thio-2-pyridyloxy]methylphenyl}acetamide] | 85 | 116 to 118 | 98 | 99 | 100 |
| CNC(=O)C(=NOC)c1ccccc1COc1ccc(Sc2ccccc2)cn1 [Compound 6, 2-Methoxyimino-N-methyl-[2-(5-phenylthio-2-pyridyloxy)methylphenyl]acetamide] | 80 | 95 to 96 | 98 | 90 | 98 |
